Measurements: patent publication US4413126A, “Preparation of isoquinoline derivatives useful as immune regulants” (Eli Lilly and Company, priority 1982, dated 1983)
Where a name gives a salt, the structure may show the parent alone. Read-outs that look alike come from different tables or passages of the source.

What was measured:
antibody production = experiment: Mouse Hemagglutinin assay, oral administration (pooled serum assay procedure); assay type: in vivo, mouse (Swiss); conditions: P.O., nine daily doses; for minimal effective dose: Mus musculus, po, read-out: MED (minimum effective dose: lowest drug dose producing 75 percent or greater antibody suppression)
Protocol: Groups of five 20-gram, male, random-bred, Swiss mice received intravenous injections of 5×10^7 sheep red blood cells. The cells for these injections were prepared from lamb's blood (collected in Alsever's solution) by washing three times with 0.85 percent saline. Nine daily doses of each compound to be tested, solubilized in polyethylene glycol 400, were administered orally in 0.1 ml. doses, commencing three days prior to red blood cell injection. Several dose levels of each compound were employed, at 2-fold increments. A control group of mice, receiving a red blood cell injection and nine daily doses of vehicle instead of drug, was included. Six days after the antigen injections, the mice were bled by cardiac puncture and the blood from each 5-mouse group pooled. […] Following incubation of the trays for 3 hours at 37° C., the hemagglutination patterns were graded.

GVH reaction = experiment: Graft-Versus-Host (GVH) Reaction; assay type: in vivo, mouse (C57BL×C3H); conditions: for minimal effective dose: 312 h, read-out: Endpoint Dose (p < 0.05): lowest drug dose significantly lowering the spleen/body weight ratio
Protocol: In this test, parental (C57BL) mouse spleen cells are injected into mice of an F1 hybrid strain (C57BL×C3H). […] As a consequence, the recipient's spleen becomes enlarged. Immunosuppression prevents or reduces this enlargement. Thus, spleen weights provide a measure of the GVH reaction and its reduction under immunosuppression.
A modification of Simonsen's original procedure (Ann. N.Y. Acad. Sci., 73, 834 (1958) was employed. Large crops of spleen cells were obtained, without the generally employed manual teasing of spleens, by using Waring blendors with the cutting blades reversed. Two six-second blending periods buffeted the spleens (batches of 25 C57BL spleens in 25-ml. saline) sufficiently to free the cells from the connective tissue. The latter was removed by filtration through several thicknesses of cheesecloth. Cell suspensions prepared in this fashion were standardized, by means of Levy-Hausser chamber counts, to contain 6×10^8 nucleated cells per ml. Groups of ten 16-18 gram C57BL×C3H mice were injected intraperitoneally with 1 ml. of the donor cell suspension. The compounds were administered either orally (P.O.) or subcutaneously (S.C.) in a vehicle composed of saline containing 0.125% methylcellulose and 0.2% emulphor, commencing 3 days prior to cell injection and continuing daily for 13 days. Control animals received only cells and vehicle. The spleens were removed and weighed 10 days following cell injection, and the mg. spleen/gram body weight was calculated.
The compounds were administered at several dose levels and the mean spleen/body weight ratio at each dose level was compared to the control group which received only the vehicle. The p values (by Student's two-tail t Test) were determined as compared to the control group. […] The results obtained in the graft-versus-host reaction with the compounds of this invention and standard compounds are summarized in Table III.

antibody titer = experiment: Individual Serum Assay Procedure (mouse hemagglutinin, oral); assay type: in vivo, mouse (Swiss); conditions: read-out: Endpoint Dose (p < 0.05): lowest drug dose significantly lowering antibody titer
[1] = test system: adjuvant-induced arthritis; experiment: Adjuvant-induced Arthritis Test in Rats: uninjected paw volume inflammation; assay type: in vivo, rat (Lewis-Wistar); conditions: days 11 through 25
[2] = test system: adjuvant-induced arthritis; experiment: Adjuvant-induced Arthritis Test in Rats: bone damage by X-ray; assay type: in vivo, rat (Lewis-Wistar); conditions: X-ray day 25
[3] = po, P.O., daily for 13 days, mouse
[4] = P.O., ten daily doses, mouse, individual serum

## C[n+]1c2ccc(Cl)cc2n2c(=O)c3cccc4cccc(c43)c21
Antibody production
  minimal effective dose: > 100 mg/kg

## C[n+]1c2ccc(C(F)(F)F)cc2n2c(=O)c3cccc4cccc(c43)c21
Antibody production
  minimal effective dose: 100 mg/kg

## C[n+]1c2cc(Cl)ccc2n2c(=O)c3cccc4cccc(c43)c21
Antibody production
  minimal effective dose: 100 mg/kg

## O=c1c2cccc3cccc(c32)c2nc3ccc(Br)cc3n12 [10-bromo, 10-bromo-7H-benzimidazo[2,1-a]benz[de]isoquinoline-7-one]
Antibody production
  minimal effective dose: 12.5 mg/kg

## O=c1c2cccc3cccc(c32)c2nc3ccc(Cl)cc3n12 [10-chloro, 10-chloro-7H-benzimidazo[2,1-a]benz[de]isoquinoline-7-one]
Antibody production
  minimal effective dose: 3.1 mg/kg

## O=c1c2cccc3cccc(c32)c2nc3ccc(C(F)(F)F)cc3n12 [10-trifluoromethyl, 10-(trifluoromethyl)-7H-benzimidazo[2,1-a]benz[de]isoquinoline-7-one]
Antibody production
  minimal effective dose: 25 mg/kg
GVH reaction; [3]
  minimal effective dose: < 25 mg/kg

## O=c1c2cccc3cccc(c32)c2nc3cc(Br)ccc3n12 [11-bromo, 11-bromo-7H-benzimidazo[2,1-a]benz[de]isoquinoline-7-one]
Antibody production
  minimal effective dose: 1.6 mg/kg
Antibody titer; [4]
  minimal effective dose: 12.5 mg/kg
GVH reaction; [3]
  minimal effective dose: < 25 mg/kg

## O=c1c2cccc3cccc(c32)c2nc3cc(Cl)ccc3n12 [11-chloro(p-toluenesulfonate salt)]
Antibody production
  MED (minimum effective dose: lowest drug dose producing 75 percent or greater antibody suppression): 6.25 mg./kg. × 9

## O=c1c2cccc3cccc(c32)c2nc3cc(Cl)ccc3n12 [11-chloro, 11-chloro-7H-benzimidazo[2,1-a]benz[de]isoquinoline-7-one]
Antibody production
  MED (minimum effective dose: lowest drug dose producing 75 percent or greater antibody suppression): 0.4 mg./kg. × 9
Antibody titer; [4]
  minimal effective dose: 0.2 mg/kg
GVH reaction; Mus musculus, po
  minimal effective dose: 12.5 mg/kg

## O=c1c2cccc3cccc(c32)c2nc3cc(F)ccc3n12 [11-fluoro, 11-fluoro-7H-benzimidazo[2,1-a]benz[de]isoquinoline-7-one]
Antibody production
  minimal effective dose: 12.5 mg/kg

## O=c1c2cccc3cccc(c32)c2nc3cc(C(F)(F)F)ccc3n12 [11-trifluoromethyl(p-toluenesulfonate salt)]
Antibody production
  MED (minimum effective dose: lowest drug dose producing 75 percent or greater antibody suppression): 3.1 mg./kg. × 9

## O=c1c2cccc3cccc(c32)c2nc3cc(C(F)(F)F)ccc3n12 [11-trifluoromethyl, 11-(trifluoromethyl)-7H-benzimidazo[2,1-a]benz[de]isoquinoline-7-one]
Antibody production
  MED (minimum effective dose: lowest drug dose producing 75 percent or greater antibody suppression): 0.2 mg./kg. × 9
Antibody titer; [4]
  minimal effective dose: 0.4 mg/kg
GVH reaction; Mus musculus, po
  minimal effective dose: 12.5 mg/kg
GVH reaction; sc, S.C., daily for 13 days, mouse
  minimal effective dose: < 0.1 mg/kg
[1]; Test 1, 100 mg./kg. P.O. × 24
  % Inhibition of uninjected paw volume inflammation (AUC): 85.8%
[1]; Test 2, 50 mg./kg. P.O. × 24
  % Inhibition of uninjected paw volume inflammation (AUC): 55.9%
[2]; Test 1 (100 mg./kg. P.O. × 24)
  inhibition of bone damage, injected paws: 68%
  inhibition of bone damage, uninjected paws, compared to TB control group: 94%
[2]; Test 2 (50 mg./kg. P.O. × 24)
  inhibition of bone damage, injected paws: 66%
  inhibition of bone damage, uninjected paws, compared to TB control group: 88%

## C[n+]1c2cc(C(F)(F)F)ccc2n2c(=O)c3cccc4cccc(c43)c21 [13-methyl-7-oxo-11-(trifluoromethyl)-7H-benzimidazo[2,1-a]benz[de]isoquinolinium 4-methylbenzenesulfonate]
Antibody production
  minimal effective dose: 1.6 mg/kg
Antibody titer; Mus musculus
  minimal effective dose: 12.5 mg/kg
GVH reaction; Mus musculus, po
  minimal effective dose: 12.5 mg/kg

## Cn1cnc([N+](=O)[O-])c1Sc1ncnc2nc[nH]c12 [Azathioprine, reference compound]
Antibody production
  minimal effective dose: 100 mg/kg
Antibody titer; [4]
  minimal effective dose: 100 mg/kg
GVH reaction; P.O., daily for 13 days, mouse
  Endpoint Dose (p < 0.05): lowest drug dose significantly lowering the spleen/body weight ratio: 12.5 mg./kg. × 13

## C[C@]12CCC(=O)C=C1CC[C@@H]1[C@@H]2C(=O)C[C@@]2(C)[C@H]1CC[C@]2(O)C(=O)CO [Cortisone, reference compound]
GVH reaction; [3]
  minimal effective dose: 3.1 mg/kg

## O=P1(N(CCCl)CCCl)NCCCO1 (stereo not shown) [Cyclophosphamide, reference compound]
GVH reaction; [3]
  minimal effective dose: 12.5 mg/kg

## CC(C(=O)O)c1cccc(Oc2ccccc2)c1 (stereo not shown) [Fenoprofen, reference compound]
[1]; Test 1, 40 mg./kg. P.O. × 24
  % Inhibition of uninjected paw volume inflammation (AUC): 44.0%
[1]; Test 2, 40 mg./kg. P.O. × 24
  % Inhibition of uninjected paw volume inflammation (AUC): 60.7%

## CN(Cc1cnc2nc(N)nc(N)c2n1)c1ccc(C(=O)N[C@@H](CCC(=O)O)C(=O)O)cc1 [Methotrexate, reference compound]
GVH reaction; Mus musculus, po
  minimal effective dose: 0.2 mg/kg
